Tests used:
Assay type in all cases: in vivo
kochia (Bassia scoparia) [1] = assay: Test A preemergence, kochia; settings: Preemergence; for Plant response rating, Kochia: 0 to 100 scale (0 no effect, 100 complete control); for Kochia plant response rating: visual injury on 0 to 100 scale (0 no effect, 100 complete control), approximately 10 days
In short: (§1)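 Directed soil spray at planting gave the preemergence treatment, while foliar application to one- to two-leaf seedlings (2–10 cm) gave the postemergence one; pots held a loam and sand mixture and chemicals were carried in a non-phytotoxic solvent with surfactant.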

[2] = tested on: pigweed (Amaranthus retroflexus); assay: Test A postemergence, pigweed; settings: Postemergence, 0 to 100 scale (0 no effect, 100 complete control); for Plant response rating, Pigweed: 125 g ai/ha; for Pigweed plant response rating: 500 g ai/ha, visual injury vs untreated controls after approx. 10 days
In short: as §1

[3] = tested on: Ryegrass, Italian (Italian ryegrass, Lolium multiflorum); assay: Test A postemergence, Ryegrass, Italian; settings: Postemergence, 0 to 100 scale (0 no effect, 100 complete control); for Plant response rating, Ryegrass, Italian: 125 g ai/ha; for Ryegrass, Italian plant response rating: 500 g ai/ha, visual injury vs untreated controls after approx. 10 days
In short: as §1

[4] = tested on: barnyardgrass (Echinochloa crus-galli); assay: Test A postemergence, barnyardgrass; settings: Postemergence, 0 to 100 scale (0 no effect, 100 complete control); for Plant response rating, Barnyardgrass: 125 g ai/ha; for Barnyardgrass plant response rating: 500 g ai/ha, visual injury vs untreated controls after approx. 10 days
In short: (§2)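 Seeds are sown in loam mixed with sand and sprayed on the soil surface right after planting for the preemergence test. Postemergence pots are sprayed once seedlings reach 2 to 10 cm at the one- to two-leaf stage. The same surfactant-containing, non-phytotoxic solvent formulation serves both.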

[5] = tested on: pigweed (Amaranthus retroflexus); assay: Test A preemergence, pigweed; settings: for Plant response rating, Pigweed: 0 to 100 scale (0 no effect, 100 complete control); for Pigweed plant response rating: visual injury on 0 to 100 scale (0 no effect, 100 complete control), approximately 10 days
In short: as §2

[6] = tested on: blackgrass (Alopecurus myosuroides); assay: Test A postemergence, blackgrass; settings: Postemergence, 0 to 100 scale (0 no effect, 100 complete control); for Plant response rating, Blackgrass: 125 g ai/ha; for Blackgrass plant response rating: 500 g ai/ha, visual injury vs untreated controls after approx. 10 days
In short: as §1

corn (Zea mays) = assay: Test A postemergence, corn; settings: Postemergence, 0 to 100 scale (0 no effect, 100 complete control); for Plant response rating, Corn: 125 g ai/ha; for Corn plant response rating: 500 g ai/ha, visual injury vs untreated controls after approx. 10 days
In short: as §1

[7] = tested on: Foxtail, Giant (giant foxtail, Setaria faberi); assay: Test A preemergence, Foxtail, Giant; settings: Preemergence; for Plant response rating, Foxtail, Giant: 0 to 100 scale (0 no effect, 100 complete control); for Foxtail, Giant plant response rating: visual injury on 0 to 100 scale (0 no effect, 100 complete control), approximately 10 days
In short: as §1

kochia (Bassia scoparia) [8] = assay: Test A postemergence, kochia; settings: Postemergence, 0 to 100 scale (0 no effect, 100 complete control); for Plant response rating, Kochia: 125 g ai/ha; for Kochia plant response rating: 500 g ai/ha, visual injury vs untreated controls after approx. 10 days
In short: as §1

[9] = tested on: ragweed (common ragweed, Ambrosia artemisiifolia); assay: Test A preemergence, ragweed; settings: Preemergence; for Plant response rating, Ragweed: 0 to 100 scale (0 no effect, 100 complete control); for Ragweed plant response rating: visual injury on 0 to 100 scale (0 no effect, 100 complete control), approximately 10 days
In short: as §1

[10] = tested on: barnyardgrass (Echinochloa crus-galli); assay: Test A preemergence, barnyardgrass; settings: Preemergence; for Plant response rating, Barnyardgrass: 0 to 100 scale (0 no effect, 100 complete control)
In short: as §1

[11] = tested on: Foxtail, Giant (giant foxtail, Setaria faberi); assay: Test A postemergence, Foxtail, Giant; settings: Postemergence, 0 to 100 scale (0 no effect, 100 complete control); for Plant response rating, Foxtail, Giant: 125 g ai/ha; for Foxtail, Giant plant response rating: 500 g ai/ha, visual injury vs untreated controls after approx. 10 days
In short: as §1

[12] = tested on: wheat (Triticum aestivum); assay: Test A postemergence, wheat; settings: Postemergence, 0 to 100 scale (0 no effect, 100 complete control); for Plant response rating, Wheat: 125 g ai/ha; for Wheat plant response rating: 500 g ai/ha, visual injury vs untreated controls after approx. 10 days
In short: as §2

[13] = tested on: Ryegrass, Italian (Italian ryegrass, Lolium multiflorum); assay: Test A preemergence, Ryegrass, Italian; settings: Preemergence; for Plant response rating, Ryegrass, Italian: 0 to 100 scale (0 no effect, 100 complete control); for Ryegrass, Italian plant response rating: visual injury on 0 to 100 scale (0 no effect, 100 complete control), approximately 10 days
In short: as §1

[14] = tested on: ragweed (common ragweed, Ambrosia artemisiifolia); assay: Test A postemergence, ragweed; settings: Postemergence, 0 to 100 scale (0 no effect, 100 complete control); for Plant response rating, Ragweed: 125 g ai/ha; for Ragweed plant response rating: 500 g ai/ha, visual injury vs untreated controls after approx. 10 days
In short: as §1

[15] = tested on: galium (catchweed bedstraw, Galium aparine); assay: Test A postemergence, galium; settings: Postemergence, 0 to 100 scale (0 no effect, 100 complete control); for Plant response rating, Galium: 125 g ai/ha; for Galium plant response rating: 500 g ai/ha, visual injury vs untreated controls after approx. 10 days
In short: as §2

[16] = 125 g ai/ha, visual injury, approx. 10 days

SMILES	Plant response rating, Kochia (kochia (Bassia scoparia) [1]; [16])	Plant response rating, Kochia (kochia (Bassia scoparia) [1]; 500 g ai/ha)	Plant response rating, Pigweed [2]	Pigweed plant response rating [2]	Plant response rating, Ryegrass, Italian [3]	Ryegrass, Italian plant response rating [3]	Plant response rating, Barnyardgrass [4]	Barnyardgrass plant response rating [4]	Plant response rating, Pigweed [5, 16]	Plant response rating, Pigweed ([5]; 500 g ai/ha)	Plant response rating, Blackgrass [6]	Blackgrass plant response rating [6]	Plant response rating, Corn (corn (Zea mays))	Corn plant response rating (corn (Zea mays))	Kochia plant response rating (kochia (Bassia scoparia) [8])	Plant response rating, Barnyardgrass ([10]; 500 g ai/ha)	Foxtail, Giant plant response rating [11]	Wheat plant response rating [12]	Ragweed plant response rating [14]	Galium plant response rating [15]	other results
Cc1cc(C)c(C2=NOC(C)(C)C2)cc1NS(=O)(=O)C(F)(F)F [Compound 206]	80	90	60	70	50	90	60	80	90	100	50	50	0	70	70	90	60	80	90	80	Plant response rating, Foxtail, Giant [7, 16]: 80; Plant response rating, Foxtail, Giant ([7]; 500 g ai/ha): 90; Plant response rating, Kochia (kochia (Bassia scoparia) [8]): 20; Plant response rating, Ragweed [9, 16]: 40; Plant response rating, Ragweed ([9]; 500 g ai/ha): 80; Plant response rating, Barnyardgrass [10, 16]: 90; Plant response rating, Foxtail, Giant [11]: 50; Plant response rating, Wheat [12]: 60; Plant response rating, Ryegrass, Italian [13, 16]: 80; Plant response rating, Ryegrass, Italian ([13]; 500 g ai/ha): 90; Plant response rating, Ragweed [14]: 60; Plant response rating, Galium [15]: 70
CC(=O)OCN(c1cc(C2=NO[C@@H]3CCC[C@H]23)c(C)cc1C)S(=O)(=O)C(F)(F)F (relative stereo) [Compound 102]		90		80		90		90		100		0		30	90	100	70	80	90	100	Kochia plant response rating (kochia (Bassia scoparia) [1]; 125 g ai/ha): 70; Plant response rating, Pigweed ([2]; visual injury approx. 10 days): 70; Plant response rating, Ryegrass, Italian ([3]; visual injury approx. 10 days): 80; Plant response rating, Barnyardgrass ([4]; visual injury approx. 10 days): 90; Pigweed plant response rating ([5]; 125 g ai/ha): 100; Plant response rating, Blackgrass ([6]; visual injury approx. 10 days): 0; Plant response rating, Corn (corn (Zea mays); visual injury approx. 10 days): 10; Foxtail, Giant plant response rating ([7]; 125 g ai/ha): 80; Plant response rating, Foxtail, Giant ([7]; 500 g ai/ha): 90; Plant response rating, Kochia (kochia (Bassia scoparia) [8]; visual injury approx. 10 days): 70; Ragweed plant response rating ([9]; 125 g ai/ha): 20; Plant response rating, Ragweed ([9]; 500 g ai/ha): 70; Barnyardgrass plant response rating ([10]; 125 g ai/ha, visual injury on 0 to 100 scale (0 no effect, 100 complete control), approximately 10 days): 80; Plant response rating, Foxtail, Giant ([11]; visual injury approx. 10 days): 30; Plant response rating, Wheat ([12]; visual injury approx. 10 days): 40; Ryegrass, Italian plant response rating ([13]; 125 g ai/ha): 90; Plant response rating, Ryegrass, Italian ([13]; 500 g ai/ha): 90; Plant response rating, Ragweed ([14]; visual injury approx. 10 days): 70; Plant response rating, Galium ([15]; visual injury approx. 10 days): 100
Cc1cc(F)c(C(=O)N2CC(C)OC(C)C2)cc1N(S(=O)(=O)C(F)(F)F)S(=O)(=O)C(F)(F)F (stereo not drawn) [Compound 235]	30		30	30	30	60	0	60	30		0	20	0	30	30	0	30	60	90	70	Kochia plant response rating (kochia (Bassia scoparia) [1]; 500 g ai/ha): 50; Pigweed plant response rating ([5]; 500 g ai/ha): 80; Plant response rating, Foxtail, Giant [7, 16]: 10; Foxtail, Giant plant response rating ([7]; 500 g ai/ha): 10; Plant response rating, Kochia (kochia (Bassia scoparia) [8]): 10; Plant response rating, Ragweed [9, 16]: 40; Ragweed plant response rating ([9]; 500 g ai/ha): 80; Plant response rating, Barnyardgrass [10, 16]: 0; Plant response rating, Foxtail, Giant [11]: 20; Plant response rating, Wheat [12]: 20; Plant response rating, Ryegrass, Italian [13, 16]: 50; Ryegrass, Italian plant response rating ([13]; 500 g ai/ha): 90; Plant response rating, Ragweed [14]: 60; Plant response rating, Galium [15]: 70
